Assay results published in PubChem BioAssay AID2060886 (Molecular Pharmacology Branch, DTP, NCI, 2025).

Test system: 653999-131-R-J2-PDC complex spheroids, growth inhibition
Test: Anticancer human tumor 653999-131-R-J2-PDC patient-derived lung adenocarcinoma cell line growth inhibition [RAS]
Conditions: for IC50: curve of first compound; for viability, T/C: stronger effect = lower value
Summary of the method: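 Agents were tested in combination matrices in half-log decrements from a top concentration at or near clinical Cmax (10 microM if undetermined). Targets were multi-cell spheroids of tumour lines plus HUVEC and MSC stromal cells.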

[1] = second compound 0.00316 µM, first compound 0.0316 µM
[2] = second compound 0.00316 µM, first compound 0.1 µM
[3] = second compound 0.00316 µM, first compound 0.316 µM
[4] = second compound 0.00316 µM, first compound 1 µM
[5] = second compound 0.00316 µM, first compound 3.16 µM
[6] = second compound 0.00316 µM, first compound 10 µM
[7] = second compound 0.01 µM, first compound 0.0316 µM
[8] = second compound 0.01 µM, first compound 0.1 µM
[9] = second compound 0.01 µM, first compound 0.316 µM
[10] = second compound 0.01 µM, first compound 1 µM
[11] = second compound 0.01 µM, first compound 3.16 µM
[12] = second compound 0.01 µM, first compound 10 µM
[13] = second compound 0.0316 µM, first compound 0.0316 µM
[14] = second compound 0.0316 µM, first compound 0.1 µM
[15] = second compound 0.0316 µM, first compound 0.316 µM
[16] = second compound 0.0316 µM, first compound 1 µM
[17] = second compound 0.0316 µM, first compound 3.16 µM
[18] = second compound 0.0316 µM, first compound 10 µM
[19] = second compound 0.1 µM, first compound 0.0316 µM
[20] = second compound 0.1 µM, first compound 0.1 µM
[21] = second compound 0.1 µM, first compound 0.316 µM
[22] = second compound 0.1 µM, first compound 1 µM
[23] = second compound 0.1 µM, first compound 3.16 µM
[24] = second compound 0.1 µM, first compound 10 µM
[25] = second compound 0.316 µM, first compound 0.0316 µM
[26] = second compound 0.316 µM, first compound 0.1 µM
[27] = second compound 0.316 µM, first compound 0.316 µM
[28] = second compound 0.316 µM, first compound 1 µM
[29] = second compound 0.316 µM, first compound 3.16 µM
[30] = second compound 0.316 µM, first compound 10 µM
[31] = second compound 1 µM, first compound 0.0316 µM
[32] = second compound 1 µM, first compound 0.1 µM
[33] = second compound 1 µM, first compound 0.316 µM
[34] = second compound 1 µM, first compound 1 µM
[35] = second compound 1 µM, first compound 3.16 µM
[36] = second compound 1 µM, first compound 10 µM
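Further: spheroids exposed to the agents for seven days before the readout.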

Cc1nc(N2CCC3(CC2)COC(C)C3N)c(CO)nc1Sc1ccnc(N)c1Cl (centres undefined) + C=CC(=O)N1CCN(c2nc(OCC3CCCN3C)nc3c(F)c(-c4nc(N)cc(C)c4C(F)(F)F)c(Cl)cc23)C(C)C1
IC50 (second compound 0.00316 µM): > 10 µM | IC50 (second compound 0.01 µM): > 10 µM | IC50 (second compound 0.0316 µM): > 10 µM | IC50 (second compound 0.1 µM): > 10 µM | IC50 (second compound 0.316 µM): > 10 µM | IC50 (second compound 1 µM): > 10 µM | viability, T/C [1]: 81.4% | viability, T/C [2]: 76.7% | viability, T/C [3]: 77.9% | viability, T/C [4]: 74.6% | viability, T/C [5]: 83.3% | viability, T/C [6]: 78.2% | viability, T/C [7]: 90.5% | viability, T/C [8]: 86.5% | viability, T/C [9]: 78.3% | viability, T/C [10]: 80.6% | viability, T/C [11]: 86.9% | viability, T/C [12]: 63.9% | viability, T/C [13]: 87.2% | viability, T/C [14]: 82.6% | viability, T/C [15]: 93.1% | viability, T/C [16]: 84.7% | viability, T/C [17]: 78.1% | viability, T/C [18]: 63.9% | viability, T/C [19]: 103% | viability, T/C [20]: 77.6% | viability, T/C [21]: 90.2% | viability, T/C [22]: 73.5% | viability, T/C [23]: 77% | viability, T/C [24]: 70% | viability, T/C [25]: 92% | viability, T/C [26]: 82% | viability, T/C [27]: 82.9% | viability, T/C [28]: 78.4% | viability, T/C [29]: 80.7% | viability, T/C [30]: 73.9% | viability, T/C [31]: 105% | viability, T/C [32]: 66.7% | viability, T/C [33]: 74.8% | viability, T/C [34]: 78.3% | viability, T/C [35]: 67.3% | viability, T/C [36]: 82.1%

C[C@@H](NC(=O)c1ncnc(N)c1Cl)c1ncc(C(=O)Nc2cc(C(F)(F)F)c(Cl)cn2)s1 + C=CC(=O)N1CCN(c2nc(OCC3CCCN3C)nc3c(F)c(-c4nc(N)cc(C)c4C(F)(F)F)c(Cl)cc23)C(C)C1
IC50 (second compound 0.00316 µM): > 10 µM | IC50 (second compound 0.01 µM): > 10 µM | IC50 (second compound 0.0316 µM): > 10 µM | IC50 (second compound 0.1 µM): > 10 µM | IC50 (second compound 0.316 µM): > 10 µM | IC50 (second compound 1 µM): > 10 µM | viability, T/C [1]: 120% | viability, T/C [2]: 85% | viability, T/C [3]: 101% | viability, T/C [4]: 81% | viability, T/C [5]: 88.5% | viability, T/C [6]: 81% | viability, T/C [7]: 127% | viability, T/C [8]: 108% | viability, T/C [9]: 89% | viability, T/C [10]: 93.5% | viability, T/C [11]: 98% | viability, T/C [12]: 71.3% | viability, T/C [13]: 116% | viability, T/C [14]: 90.3% | viability, T/C [15]: 93.5% | viability, T/C [16]: 89.9% | viability, T/C [17]: 84.3% | viability, T/C [18]: 73.2% | viability, T/C [19]: 105% | viability, T/C [20]: 95.2% | viability, T/C [21]: 101% | viability, T/C [22]: 94.3% | viability, T/C [23]: 89.5% | viability, T/C [24]: 84.2% | viability, T/C [25]: 107% | viability, T/C [26]: 96.1% | viability, T/C [27]: 110% | viability, T/C [28]: 97.6% | viability, T/C [29]: 85.1% | viability, T/C [30]: 86.1% | viability, T/C [31]: 90.9% | viability, T/C [32]: 96.7% | viability, T/C [33]: 104% | viability, T/C [34]: 99.5% | viability, T/C [35]: 87.5% | viability, T/C [36]: 82.2%
